In PubChem BioAssay (NCI) one finds GI50 and TGI data, which are given here for 9 compounds.

Test systems include CAKI-1 renal; NCI-H522 lung; COLO 205 colon; MDA-MB-231 breast; SK-MEL-28 melanoma; SK-MEL-2 melanoma; SK-MEL-5 melanoma; SK-OV-3 ovarian; HCT-116 colon; CCRF-CEM leukemia.
Common to all, as to assay: NCI tumour cell line growth inhibition, 48 h

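Cells were grown in 96-well plates and exposed to each compound for 48 hours at five concentrations; endpoints were interpolated linearly between bracketing concentrations, or set to the highest concentration if not reached. GI50: concentration for 50% inhibition of growth. TGI marks complete inhibition of growth.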 A value given as a limit tells only on which side of the number the result lay.

With `CCN(c1cc(-c2ccc(CN3CCOCC3)cc2)cc(C(=O)NCc2c(C)cc(C)[nH]c2=O)c1C)C1CCOCC1`, the GI50 in the experiment on CAKI-1 renal is 20.3 µM; in the experiment on NCI-H522 lung it was 23.6 µM; with COLO 205 colon it was 18.1 µM; with MDA-MB-231 breast it was 20.4 µM; with SK-MEL-28 melanoma, 20.5 µM; in the experiment with SK-MEL-2 melanoma, 16.6 µM. In addition, the GI50 in the experiment with SK-MEL-5 melanoma was 16.3 µM; with SK-OV-3 ovarian, 52.9 µM; with HCT-116 colon, 18.5 µM; in the experiment with CCRF-CEM leukemia, 30.6 µM. The TGI is above 100 µM in the experiment with CAKI-1 renal; above 58.5 µM in the experiment on NCI-H522 lung; 34.9 µM in the experiment on COLO 205 colon; 44.7 µM with MDA-MB-231 breast; 47.7 µM in the experiment with SK-MEL-28 melanoma; 35.8 µM in the experiment with SK-MEL-2 melanoma. Further, the TGI in the experiment on SK-MEL-5 melanoma is 31.7 µM; in the experiment on SK-OV-3 ovarian, above 100 µM; in the experiment with HCT-116 colon it was 40.3 µM; in the experiment with CCRF-CEM leukemia it was above 85.4 µM.
`COc1cc2c(cc1O)CC1c3c(cc(O)c(OC)c3-2)CCN1C` (configuration not stated): the TGI in the experiment on CAKI-1 renal, in the experiment on NCI-H522 lung, with COLO 205 colon, in the experiment on MDA-MB-231 breast, in the experiment on SK-MEL-28 melanoma and with SK-MEL-2 melanoma was above 100 µM each time. Moreover, the TGI in the experiment with SK-MEL-5 melanoma, with SK-OV-3 ovarian, in the experiment with HCT-116 colon and with CCRF-CEM leukemia was above 100 µM in each case.
Turning to `O=c1cc(N/N=C/c2ccc(F)cc2)c2cc(Cl)ccc2[nH]1`, the GI50 with CAKI-1 renal is 23.5 µM; in the experiment on NCI-H522 lung, 17.4 µM; with COLO 205 colon, 18.2 µM; with MDA-MB-231 breast it was 16 µM; in the experiment with SK-MEL-28 melanoma, 19.8 µM; with SK-MEL-2 melanoma, 18.3 µM. In addition, the GI50 is 3.54 µM in the experiment on SK-MEL-5 melanoma, 20.1 µM in the experiment on SK-OV-3 ovarian, 17.4 µM with HCT-116 colon and 12 µM in the experiment on CCRF-CEM leukemia. In addition, the TGI is above 100 µM with CAKI-1 renal; 74.3 µM in the experiment with NCI-H522 lung; 43.5 µM with COLO 205 colon; 51.7 µM in the experiment with MDA-MB-231 breast; above 100 µM in the experiment on SK-MEL-28 melanoma; 69.3 µM with SK-MEL-2 melanoma. In addition, the TGI in the experiment with SK-MEL-5 melanoma was 14.1 µM; in the experiment on SK-OV-3 ovarian, 83.4 µM; in the experiment with HCT-116 colon, above 100 µM; with CCRF-CEM leukemia it was above 100 µM.
`Cc1nc(Nc2cccnc2)sc1C(=O)/C=C/c1ccc(Cl)cc1`: the GI50 in the experiment on CAKI-1 renal is 3.15 µM; in the experiment with NCI-H522 lung it was 2.14 µM; in the experiment with COLO 205 colon, 2.53 µM; in the experiment on MDA-MB-231 breast it was 4.7 µM; in the experiment with SK-MEL-28 melanoma it was 3.04 µM; with SK-MEL-2 melanoma it was 3.97 µM. Moreover, the GI50 is 4.59 µM in the experiment with SK-MEL-5 melanoma, 3.88 µM in the experiment on SK-OV-3 ovarian, 1.85 µM in the experiment on HCT-116 colon and 3.31 µM in the experiment with CCRF-CEM leukemia. Besides, the TGI with CAKI-1 renal was 15.1 µM; with NCI-H522 lung, 5.33 µM; in the experiment on COLO 205 colon, 6.47 µM; with MDA-MB-231 breast, above 100 µM; with SK-MEL-28 melanoma, 14.7 µM; in the experiment on SK-MEL-2 melanoma, 18.3 µM. The TGI with SK-MEL-5 melanoma was 35.5 µM; in the experiment on SK-OV-3 ovarian, above 100 µM; in the experiment with HCT-116 colon, 5.03 µM; in the experiment with CCRF-CEM leukemia it was above 100 µM.
As for `C#Cc1nc2ccccc2c(=O)[nH]1`, the GI50 in the experiment with CAKI-1 renal is 1.43 µM; in the experiment on NCI-H522 lung it was 0.765 µM; in the experiment with COLO 205 colon it was 0.818 µM; in the experiment on MDA-MB-231 breast it was 0.318 µM; with SK-MEL-28 melanoma, 0.861 µM; in the experiment on SK-MEL-2 melanoma it was 2.15 µM. For the same compound, the GI50 in the experiment with SK-MEL-5 melanoma was 0.633 µM; with SK-OV-3 ovarian, 6.54 µM; in the experiment with HCT-116 colon, 0.247 µM; in the experiment on CCRF-CEM leukemia, 0.237 µM. For the same compound, the TGI stood at 3.47 µM with CAKI-1 renal; 2.18 µM in the experiment on NCI-H522 lung; 2.42 µM in the experiment on COLO 205 colon; 1.49 µM with MDA-MB-231 breast; 3.42 µM with SK-MEL-28 melanoma; 6.19 µM in the experiment on SK-MEL-2 melanoma. Besides, the TGI was determined as 2.01 µM in the experiment with SK-MEL-5 melanoma, 40.1 µM with SK-OV-3 ovarian, 0.716 µM with HCT-116 colon and 0.721 µM with CCRF-CEM leukemia.
With `Cc1nc2c(n1C)C(=O)c1ccccc1C2=O`, the GI50 in the experiment with CAKI-1 renal was 29.4 µM; with NCI-H522 lung it was 40.6 µM; in the experiment with COLO 205 colon, 37.4 µM; in the experiment with MDA-MB-231 breast, above 100 µM; in the experiment with SK-MEL-28 melanoma, above 100 µM; with SK-MEL-2 melanoma, above 100 µM. In addition, the GI50 was 22 µM in the experiment on SK-MEL-5 melanoma, above 100 µM in the experiment with SK-OV-3 ovarian, 40 µM in the experiment on HCT-116 colon and 59.3 µM with CCRF-CEM leukemia. In addition, the TGI in the experiment with CAKI-1 renal, in the experiment with NCI-H522 lung, with COLO 205 colon, with MDA-MB-231 breast, with SK-MEL-28 melanoma and in the experiment on SK-MEL-2 melanoma was above 100 µM in each case. Also, the TGI in the experiment on SK-MEL-5 melanoma is 85.2 µM; in the experiment on SK-OV-3 ovarian, above 100 µM; with HCT-116 colon, above 100 µM; in the experiment on CCRF-CEM leukemia it was above 100 µM.
Take `Cc1cc(N=C2C=C(Br)C(=O)C(Br)=C2)cc(CN(CC(=O)O)CC(=O)O)c1O`: the TGI in the experiment on CAKI-1 renal, in the experiment on NCI-H522 lung, in the experiment on COLO 205 colon, with MDA-MB-231 breast, in the experiment on SK-MEL-28 melanoma and in the experiment on SK-MEL-2 melanoma was above 100 µM throughout. For the same compound, the TGI with SK-MEL-5 melanoma, with SK-OV-3 ovarian, in the experiment with HCT-116 colon and with CCRF-CEM leukemia was above 100 µM each time.
For the compound `O=C1CCC(N2C(=O)c3ccccc3C2=O)C(=O)N1` (configuration not stated), the TGI in the experiment with CAKI-1 renal, with NCI-H522 lung, in the experiment with COLO 205 colon, in the experiment with MDA-MB-231 breast, with SK-MEL-28 melanoma and in the experiment with SK-MEL-2 melanoma was above 100 µM in each case. Further, the TGI in the experiment with SK-MEL-5 melanoma, in the experiment with SK-OV-3 ovarian, in the experiment with HCT-116 colon and in the experiment on CCRF-CEM leukemia was above 100 µM throughout. The GI50 in the experiment with MDA-MB-231 breast and with SK-MEL-28 melanoma was above 100 µM in each case.
Consider `O=P1(S)OC[C@H]2O[C@@H]3[C@H](F)[C@@H]2OP(O)(=S)OC[C@H]2O[C@H]([C@H](F)[C@@H]2O1)n1cnc2c(ncnc21)NC/C=C/CNc1ncnc2c1ncn23` (some centres not stated), for which the GI50 with CAKI-1 renal, with NCI-H522 lung, with COLO 205 colon, in the experiment on MDA-MB-231 breast, in the experiment with SK-MEL-28 melanoma and with SK-MEL-2 melanoma was above 100 µM throughout. Moreover, the GI50 was above 100 µM in the experiment with SK-MEL-5 melanoma, 5.08 µM in the experiment on SK-OV-3 ovarian, above 100 µM with HCT-116 colon and above 100 µM in the experiment on CCRF-CEM leukemia. The TGI in the experiment on CAKI-1 renal, in the experiment with NCI-H522 lung, in the experiment with COLO 205 colon, in the experiment with MDA-MB-231 breast, in the experiment on SK-MEL-28 melanoma and in the experiment on SK-MEL-2 melanoma was above 100 µM throughout. In addition, the TGI in the experiment with SK-MEL-5 melanoma, in the experiment with SK-OV-3 ovarian, in the experiment with HCT-116 colon and with CCRF-CEM leukemia was above 100 µM in each case.
